The values that follow come from patent publication US8999375B2, “Compositions including pyruvate for companion animals and methods of use thereof” (Hill's Pet Nutrition, Inc., priority 2009, dated 2015).

The experiment deals with arthritic and normal cats. Description: Feline arthritis biomarker measurements in arthritic and normal cats. Type of experiment: in vivo. As to conditions: 1% by weight in diet, 28 days. How it is done: Calcium pyruvate was tested in arthritic and normal cats to determine efficacy in reducing cartilage damage and inflammatory markers. Ten normal and ten arthritis cats were fed the feline control diet enhanced with 1% by weight calcium pyruvate for 28 days. Analysis was performed on natural log transformed values. Means and SED are antilog values of log transformed data.

In the case of calcium pyruvate, the “concentration of serum HMGB1 (in words)” value is given as “reduced”; the “concentration of serum IL-1 beta (in words)” value is listed as “reduced”; the “marker of bone formation, BAP (in words)” value is recorded as “improved”.
